The record followed here is article PMC9545474, “Anticancer Water‐Soluble Organoruthenium Complexes: Synthesis and Preclinical Evaluation” (Chembiochem, 2022).

The conditions of the data set: mice. The protocol:
Compounds: All compounds were provided in powdered form and stored in the −20 °C freezer. They were formulated just before use. […] The drugs were then administered within 10 minutes of initial dilution.
Animals: Female Balb/c immunodeficient nude mice aged 6–12 weeks were used (Envigo, Blackthorn, UK). Mice were kept in cages housed in isolation cabinets in an air‐conditioned room with regular alternating cycles of light and darkness. They received Teklad 2018 diet (Envigo, Blackthorn, UK) and water ad libitum. All animal procedures were carried out under a project licence issued by the UK Home Office and UK National Cancer Research Institute Guidelines for the Welfare of Animals were followed throughout.
(1 picture or pasted object on this page, not shown here)

Turning to `Cc1ccc(C(C)C)cc1.N#CC1=C(C#N)[S][Ru-]([P+](c2ccccc2)(c2ccccc2)c2ccccc2)[S]1` [Complex 8, (η^6‐p‐cymene)(PPh3)Ru(Mnt)], the “maximum tolerated dose (MTD)” value (i.p. daily, monitored for a further two weeks) was 15 mg/kg. For the same compound, where the note is “i.p., 15mg/kg in 20 % DMSO/arachis oil, full run”, the “Toxicity in MTD run” value is reported as “no evidence of toxicity was seen”.
